# From patent US9522159B2, “Treatment and prevention of P. aeruginosa infections using coformycin analogs” (Albert Einstein College of Medicine, Inc., priority 2012, dated 2016)
# Several values for one entry are separate records, joined by “and”; a condition that tells them apart may be missing. Identical values can stand only once. Entries after “also recorded” stand apart in the source; their conditions may differ. Like-named read-outs stand apart in the source and are kept apart here.
# Key:
# [1] = biological target: T1, PaMTADA (Pseudomonas aeruginosa, UniProt Q9HZ64); experiment: Inhibition assays for PaMTADA; format: biochemical
# T1 sequence (Q9HZ64 1-444): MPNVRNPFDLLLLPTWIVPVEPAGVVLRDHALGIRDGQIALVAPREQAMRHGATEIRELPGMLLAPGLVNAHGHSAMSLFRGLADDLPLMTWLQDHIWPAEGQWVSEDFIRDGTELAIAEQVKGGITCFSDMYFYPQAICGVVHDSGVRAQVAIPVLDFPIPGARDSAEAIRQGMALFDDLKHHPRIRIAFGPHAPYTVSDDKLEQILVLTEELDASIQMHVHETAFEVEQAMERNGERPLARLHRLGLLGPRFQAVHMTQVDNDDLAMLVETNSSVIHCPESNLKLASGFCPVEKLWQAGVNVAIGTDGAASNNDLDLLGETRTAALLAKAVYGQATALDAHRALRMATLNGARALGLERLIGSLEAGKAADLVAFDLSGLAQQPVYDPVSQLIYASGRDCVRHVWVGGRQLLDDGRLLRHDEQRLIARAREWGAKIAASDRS
# Text: (§1) Inhibition assays. […] Controls having no enzyme and no inhibitor were included in all of the inhibition assays. The inhibition constant was obtained by fitting initial rates with variable inhibitor concentrations to equation (1) using GraFit 5 (Erithacus Software): […]
# (§2) The inhibitor concentration was corrected using equation (2) when it was less than 10 times of the enzyme concentration (20): […]
# [2] = biological target: T2, human MTAP (Homo sapiens, UniProt Q13126); experiment: Inhibition assays of HsMTAP; format: biochemical
# T2 sequence (Q13126 1-283): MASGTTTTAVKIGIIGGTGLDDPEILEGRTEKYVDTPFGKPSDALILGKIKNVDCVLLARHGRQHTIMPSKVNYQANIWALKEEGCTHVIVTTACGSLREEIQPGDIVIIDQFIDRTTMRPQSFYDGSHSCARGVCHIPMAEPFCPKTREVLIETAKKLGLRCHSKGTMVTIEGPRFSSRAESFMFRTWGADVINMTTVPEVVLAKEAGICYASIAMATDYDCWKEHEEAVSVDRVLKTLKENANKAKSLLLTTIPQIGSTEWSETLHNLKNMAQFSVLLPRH
# Experimental: (§3) Enzymatic assays. […] Deaminase activity on guanosine was measured at 260 nm with an extinction coefficient of 3.9 mM^−1cm^−1 (18). […] The extinction coefficient is 15.5 mM^−1cm^−1 at 305 nm. Reactions of deaminase were carried out at 25° C. in 1 cm cuvettes. Assay mixtures of 1 mL contained 50 mM Hepes, pH 7.4, 100 mM NaCl, 100 μg/mL BSA, variable concentrations of substrate, and appropriate amounts of purified PaMTADA. Reactions were initiated by addition of enzyme and the initial rates were monitored with a CARY 300 UV-Visible spectrophotometer. Control rates (no PaMTADA) were subtracted from initial rates. Kinetic parameters of PaMTADA were obtained by fitting initial rates to the Michaelis-Menten equation using GraFit 5 (Erithacus Software).
# as §1, §2
# [3] = biological target: E. coli MTAN (Escherichia coli, UniProt P0AF12); experiment: Inhibition assays of EcMTAN; format: biochemical
# [4] = biological target: T1, PaMTADA; experiment: Inhibition of PaMTADA activity in P. aeruginosa cell lysates ([8-14C]MTA degradation); format: biochemical, Pseudomonas aeruginosa PAO1
# Experimental: (§4) Inhibition of cellular PaMTADA activity. Inhibition of PaMTADA activity in cell lysates was carried out as follows. P. aeruginosa PAO1 (ATCC number: 15692) was grown at 37° C. to stationary phase in LB medium for 16 hours. Cells were collected by centrifugation at 16,100 g and washed three times with 100 mM phosphate, pH 7.4. Cells were lysed using BugBuster reagent (Novagen). […] Reaction mixtures were quenched with perchloric acid (1.8 M final concentration) and neutralized with potassium hydroxide. Precipitates were removed by centrifugation and carrier hypoxanthine, adenine, MTI, and MTA were added to the supernatant. Separation of the metabolites was carried out on a C18 Luna HPLC column (Phenomenex) with a gradient of 5 to 52.8% acetonitrile in 20 mM triethylamine acetate, pH 5.2. The UV absorbance at 260 nm was monitored. […] Fractions were collected in scintillation vials, dried, reconstituted in 200 μL deionized water prior to addition of 10 mL ULTIMA GOLD LSC-Cocktail scintillation fluid. The cpm of ^14C was counted at 20 min per cycle for three cycles using a Tri-Carb 2910TR liquid scintillation analyzer. Cell lysate was replaced by lysis buffer in reaction mixtures in control experiments. […] All other procedures were the same as described above.
# (§5) [formula] where y is the percentage of degraded MTA at certain [I] […] Results and Discussion
# Inhibition of cellular PaMTADA activity. […]
# [5] = biological target: T1, PaMTADA; experiment: Inhibition of cellular PaMTADA activity, MTCF added to LB medium during growth; format: cell-based, Pseudomonas aeruginosa PAO1
# Experimental: as §4, §5
# (§6) Two hypotheses were considered for this activity. […] Second, the residual activity might arise from diffusional release of the inhibitor during the dilution (and incubation) of a small volume of cell extract into the larger volume of lysis buffer and other incubation buffer.
# [6] = system: P. aeruginosa PAO1; experiment: Growth of P. aeruginosa PAO1 with or without MTCF (OD600); format: cell-based, Pseudomonas aeruginosa PAO1; settings: up to 1 μM, 36 hours at 37° C.
# Experimental: as §6
# [7] = biological target: T3, human MTA phosphorylase (MTAP) (Homo sapiens, UniProt Q13126); experiment: Degradation of MTCF by human MTA phosphorylase; format: biochemical
# T3 sequence (Q13126 1-283): T2 sequence (Q13126 1-283)
# Experimental: as §3
# (§7) MTCF was examined to test if it might be metabolized by other enzymes related to MTA metabolism, namely by human MTA phosphorylase (MTAP) and E. coli MTA nucleosidase (MTAN).
# [8] = biological target: E. coli MTA nucleosidase (MTAN) (Escherichia coli, UniProt P0AF12); experiment: Degradation of MTCF by E. coli MTA nucleosidase; format: biochemical
# Experimental: as §3, §7
# [9] = biological target: T4, Human ADA (Homo sapiens, UniProt P00813); settings: cited from earlier work; for Ki: equilibrium dissociation constant, from Tyler et al. (15); for inhibitory effect on human ADA: result in words
# T4 sequence (P00813 1-363): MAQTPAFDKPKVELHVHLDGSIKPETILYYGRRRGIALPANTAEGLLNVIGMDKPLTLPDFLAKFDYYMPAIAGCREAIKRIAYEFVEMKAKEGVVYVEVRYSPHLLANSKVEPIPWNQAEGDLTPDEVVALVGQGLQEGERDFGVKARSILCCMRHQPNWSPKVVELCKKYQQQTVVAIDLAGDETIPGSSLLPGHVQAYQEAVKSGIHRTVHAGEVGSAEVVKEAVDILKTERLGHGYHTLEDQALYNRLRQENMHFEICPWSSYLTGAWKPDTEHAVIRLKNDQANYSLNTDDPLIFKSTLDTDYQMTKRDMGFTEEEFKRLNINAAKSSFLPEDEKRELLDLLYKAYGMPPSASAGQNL
# [10] = biological target: T5, PfADA (Plasmodium falciparum, UniProt Q8IJA9); experiment: PfADA inhibition, Ki values from Tyler et al.; format: biochemical; settings: times weaker than CF
# T5 sequence (Q8IJA9 1-367): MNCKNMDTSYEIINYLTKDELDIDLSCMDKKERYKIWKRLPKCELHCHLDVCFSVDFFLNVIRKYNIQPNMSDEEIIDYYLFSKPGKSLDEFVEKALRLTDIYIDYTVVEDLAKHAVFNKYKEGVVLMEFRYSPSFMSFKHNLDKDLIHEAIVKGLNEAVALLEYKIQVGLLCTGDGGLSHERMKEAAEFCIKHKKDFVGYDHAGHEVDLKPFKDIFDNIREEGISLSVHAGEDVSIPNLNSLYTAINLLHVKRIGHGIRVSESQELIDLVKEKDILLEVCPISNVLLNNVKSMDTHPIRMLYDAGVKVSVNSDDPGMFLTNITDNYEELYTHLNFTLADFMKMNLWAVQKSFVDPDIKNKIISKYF
# [11] = biological target: T5, PfADA; settings: cited from earlier work
# [12] = biological target: T1, PaMTADA; experiment: Deaminase activity of PaMTADA on substrates (enzymatic assays); format: biochemical; settings: for deaminase activity on substrate: PaMTADA (recombinant PA3170), result in words
# Experimental: as §3
# [13] = biological target: T4, Human ADA; settings: substrate, from Tyler et al. (15); cited from earlier work
# [14] = system: CC(O)[C@H]1O[C@@H](n2cnc3c(N)ncnc32)[C@H](S)[C@@H]1O; experiment: purified protein, by the assay type; settings: other: PaMTADA, substrate, 25° C., pH 7.4
# [15] = equilibrium dissociation constant, from Tyler et al. (15), read-out: PfADA Ki
# [16] = PaMTADA, substrate, 25° C., pH 7.4
# E. coli MTA nucleosidase (MTAN), sequence (P0AF12 whole entry): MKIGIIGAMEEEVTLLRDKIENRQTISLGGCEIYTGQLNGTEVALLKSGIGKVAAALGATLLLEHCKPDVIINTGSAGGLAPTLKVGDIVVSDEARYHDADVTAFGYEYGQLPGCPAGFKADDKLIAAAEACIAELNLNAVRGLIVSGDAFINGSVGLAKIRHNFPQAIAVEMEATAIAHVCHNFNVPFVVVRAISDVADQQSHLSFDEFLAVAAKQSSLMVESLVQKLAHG
# E. coli MTAN, sequence (P0AF12 whole entry): as above
molecule,measurement,setting,value
"OC[C@H]1O[C@@H](n2cnc3c2N=CNC[C@H]3O)[C@H](O)[C@@H]1O [Coformycin (CF), Coformycin]",Ki,"[1]; equilibrium dissociation constant (Ki or Ki*), 25° C., pH 7.4, 100 μM MTA, read-out: PaMTADA Ki",90 ± 10 nM
"OC[C@H]1O[C@@H](n2cnc3c2NC=NC[C@H]3O)C[C@@H]1O [DCF, 2′-deoxycoformycin, reference compound]",Ki,[1],37 nM
"CSC[C@H]1O[C@@H](n2cnc3c2N=CNC[C@H]3O)[C@H](O)[C@@H]1O [MTCF, 5′-methylthiocoformycin]",Ki,[2],3000 nM
same,inhibition of human MTA phosphorylase,[2]; result in words,no significant inhibition; also recorded: no significant inhibitory effects
same,Ki,[3],> 5000 nM
same,degradation of MTA,[4]; 50 nM inhibitor in cell lysate,completely blocked
same,IC50,"[4]; MTCF added to P. aeruginosa cell lysate, [8-14C]MTA degradation, 20 min",4 nM
same,concentration at which maximal inhibition was achieved,[5]; MTCF in LB medium,10 nM
same,IC50,"[5]; MTCF in LB medium during growth, corrected for residual activity",3 nM
same,PaMTADA activity,"[5]; cells grown with 500 nM MTCF in LB, 100 nM MTCF added to cell lysate",All PaMTADA activity was inhibited
same,permeability to P. aeruginosa cells,[5]; inferred from inhibition after growth in MTCF-containing LB,permeable
same,effect on cell growth,[6],no effect
same,"degradation of MTCF, kobs",[7],< 0.001 s⁻¹
same,"degradation of MTCF, kobs",[8],< 0.001 s⁻¹
same,Ki,[9],> 10000 nM
same,inhibitory effect on human ADA,[9],no significant inhibition; also recorded: no significant inhibitory effects
"CSCC1OC(n2cnc3c2N=CNCC3O)CC1O (centres unmarked) [MTDCF, 5′-methylthio-2′-deoxycoformycin]",Ki,[1],0.008 nM
same,binding affinity for PfADA relative to CF,[10],9 times
same,Ki,[11]; [15],0.7 ± 0.2 nM
same,Ki,"[11]; from (15), read-out: PfADA Ki / equilibrium dissociation constant",0.7 nM
same,Ki,[9],> 10000 nM
same,inhibitory effect on human ADA,[9],no inhibitory effect
"O[C@@H]1CNC=Nc2c1ncn2[C@H]1C[C@H](O)[C@@H](CSc2ccccc2)O1 [PhTDCF, 5′-phenylthio-2′-deoxycoformycin]",Ki,"[1]; 25° C., pH 7.4, 100 μM MTA, read-out: PaMTADA Ki / dissociation constant",0.13 nM
same,Ki,[11]; [15],60 nM
"CCCSCC1OC(n2cnc3c2N=CNCC3O)CC1O (centres unmarked) [PrTDCF, 5′-propylthio-2′-deoxycoformycin]",Ki,[1],0.067 nM
same,binding to PaMTADA relative to MTDCF,[1]; times weaker than MTDCF,8 times
same,binding affinity for PfADA relative to CF,[10],150 times
same,Ki,[9],> 10000 nM
"Nc1ncnc2c1ncn2[C@@H]1O[C@H](CSCC[C@H](N)C(=O)O)[C@@H](O)[C@H]1O [SAH, S-adenosylhomocysteine]",deaminase activity on substrate,[12],inactive
Nc1ncnc2nc[nH]c12 [adenine],deaminase activity on substrate,[12],inactive
Nc1ncnc2c1ncn2[C@@H]1O[C@H](CO)[C@@H](O)[C@H]1O [adenosine],Km,[12]; [16],46 µM
same,kcat,[12]; [16],17 s⁻¹ and 17 ± 1 s⁻¹
same,Km,[13],22 ± 3 µM
same,kcat,[13],36 ± 1 s⁻¹
Nc1nc2c(ncn2[C@@H]2O[C@H](CO)[C@@H](O)[C@H]2O)c(=O)[nH]1 [guanosine],deaminase activity on substrate,[12],inactive
PaMTADA (Pseudomonas aeruginosa PAO1),Km,[14],1.5 µM
same,kcat,[14],24.6 ± 0.8 s⁻¹
same,kcat/Km,[14],160 ± 30 ×10^5 M^−1s^−1
